Converted amounts (≈) assume the structure as drawn.
Experiments:
[1] = tested on: VZV strain Ellen; assay: VZV Antiviral (ELISA) Assay; format: cell-based, varicella-zoster virus; details: human foreskin fibroblast cells; for IC50 / inhibition at 10 µg/mL: Human alphaherpesvirus 3, Fibroblast; for IC50: read-out: IC50 Ug/ml VZV; for inhibition at 10 µg/mL: read-out: % inhibition 10 ug/ml VZV, 10 ug/ml
Outline: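 Low-MOI (<0.1) Ellen infection of HFF overnight; cell mix plated 3.5×10^4/well with compound, DMEM + 2% FBS, 3 d, 37° C, 5% CO2. Fix, anti-gpII mAb ELISA, MUG substrate, fluorescence. IC50 vs compound-free signal.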

[2] = tested on: HSV-1; assay: HSV Antiviral (ELISA) Assay; format: cell-based, herpes simplex virus type 1; details: Vero cells, HSV-1; for IC50: Human alphaherpesvirus 1, Vero, read-out: IC50 Ug/ml HSV
Outline: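 Replication measured as glycoprotein D signal in fixed cells: anti-gD antibody plus β-galactosidase-linked secondary, fluorogenic substrate read at 365/450 nm. Vero cells (2% FBS DMEM) received compound 30 min pre-infection, HSV-1 MOI 0.006, ~24 h incubation; IC50 relative to no-compound fluorescence.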

[3] = tested on: HCMV wild-type; assay: HCMV yield assay; format: cell-based, human cytomegalovirus; details: human foreskin fibroblasts; for IC50: Human betaherpesvirus 5, Fibroblast, read-out: IC50 Ug/ml HCMV
Outline: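 Value is the compound amount cutting virus yield titer by 50% (IC50) or 90% (IC90). Human foreskin fibroblasts infected with wild-type HCMV (MOI typically 0.2) under varying compound; progeny harvested day 3, titered compound-free on fibroblasts, plaques scored at 2 weeks.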

Row | Molecule | IC50 [1] [µg/mL] | inhibition at 10 µg/mL [1] [%] | IC50 [2] [µg/mL] | IC50 [3] [µg/mL] | % inhibition 10 ug/ml VZV [1] [%] | IC50 Ug/ml VZV [1] [Ug/ml] | IC50 Ug/ml HSV [2] [Ug/ml] | IC50 Ug/ml HCMV [3] [Ug/ml]
1 | CC(=O)Nc1ccc(NC(=S)Nc2cccc(Cl)c2Cl)cc1 [Example 926, N-{4-[3-(2,3-Dichloro-phenyl)-thioureido]-phenyl}-acetamide] | > 10 | 16 | > 10 | 10 (≈ 28.2 µM) |  |  |  | 
2 | CC(=O)Nc1ccc(NC(=S)Nc2cc(Cl)ccc2Cl)cc1 [Example 930, N-{4-[3-(2,5-Dichloro-phenyl)-thioureido]-phenyl}-acetamide] | > 10 | 42 | 10 (≈ 28.2 µM) | > 10 |  |  |  | 
3 | CC(=O)Nc1ccc(NC(=S)Nc2cc(Cl)cc(Cl)c2)cc1 [Example 933, N-{4-[3-(3,5-Dichloro-phenyl)-thioureido]-phenyl}-acetamide] | > 10 | 21 | > 10 | 1.2 (≈ 3.39 µM) |  |  |  | 
4 | CC(=O)Nc1ccc(NC(=S)Nc2cc(Cl)c(Cl)c(Cl)c2)cc1 [Example 936, N-{4-[3-(3,4,5-Trichloro-phenyl)-thioureido]-phenyl}-acetamide] | > 10 | 51 | 1.5 (≈ 3.86 µM) | 1 (≈ 2.57 µM) |  |  |  | 
5 | N-{4-[3-(4-Acetylamino-phenyl)-thioureido]-2-chloro-phenyl}-2-dipropylamino-acetamide [Example 410] |  |  |  |  | 26 | >10 | >10 | >10
6 | N-{4-[3-(4-Acetylamino-phenyl)-thioureido]-2-chloro-phenyl}-2-pyrrolidin-1-yl-acetamide [Example 415] |  |  |  |  | 26 | 4.5 | >10 | >10
7 | N-{4-[3-(4-Acetylamino-phenyl)-thioureido]-2-chloro-phenyl}-2-thiomorpholin-4-yl-acetamide [Example 405] |  |  |  |  | 83 | 13 | >10 | >10
8 | N-{4-[3-(5-Chloro-2,4-dimethoxy-phenyl)-thioureido]-3-methoxy-phenyl}-acetamide [Example 388] |  |  |  |  | 52 | >10 | 0.6 | >10

Reference: US6335350B1, “Acetamide and substituted acetamide-containing thiourea inhibitors of herpes viruses” (American Home Products Corporation, priority 1998, dated 2002)
